Assay results reported in US8425447B2, “Selective cytopheresis devices and related methods thereof” (The Regents of the University of Michigan, priority 2007, dated 2013).

System: Leukocytes isolated from normal healthy individuals
Assay: In vitro release from leukocytes adhered to polysulfone membranes, with or without LPS
Format: cell-based, human
Description: Leukocytes were isolated from normal healthy individuals using established methods. The leukocytes (10^6 cells per well) were placed into 12-well tissue culture plates containing 14×14 mm squares of polysulfone membranes (Fresenius, Walnut Creek, Calif.) and allowed to adhere for 60 minutes at 37° C. in RPMI media. The media was removed, cells washed with PBS, and the removed supernatants were analyzed for cell release. RPMI media with citrate (Cai=0.25 mmol/L) or without citrate (Cai=0.89 mmol/L) was used to achieve the Cai levels described in Table 5 below. Each calcium condition also had media with or without lipopolysaccharide (LPS, 1 μg/mL) to activate the leukocytes.
The cells were exposed to these conditions for […] and removed from the media to assess release of lactoferrin (LF) and myeloperoxidase (MPO), proteins in exocytotic vesicles from neutrophils, and cytokines, IL-6 and IL-8, released from leukocytes. These compounds were assayed with commercially available Elisa kits (R & D Systems, Cell Sciences, and EMD BioSciences).

[1] = with LPS (1 μg/mL), citrate media Cai 0.25 mmol/L, 60 seconds
[2] = without LPS, citrate media Cai 0.25 mmol/L, 60 seconds

## O=C(O)CC(O)(CC(=O)O)C(=O)O [Citrate]
citrate-containing media with low Cai, in contrast to normal Cai media
  increases in LF, MPO, IL-6, or IL-8 on LPS stimulation: no increases
[1]
  IL-6 release, Stimulated: 2.9 pg/mL/10^6 cells
  IL-8 release, Stimulated: 19.4 ng/mL/10^6 cells
  Lactoferrin release, Stimulated: 187 ng/mL/10^6 cells
  Myeloperoxidase release, Stimulated: 270 ng/mL/10^6 cells
[2]
  IL-6 release, Baseline: 3.3 pg/mL/10^6 cells
  IL-8 release, Baseline: 25.8 ng/mL/10^6 cells
  Lactoferrin release, Baseline: 221 ng/mL/10^6 cells
  Myeloperoxidase release, Baseline: 268 ng/mL/10^6 cells
